The values that follow come from patent publication US8518944B2, “Compounds as casein kinase inhibitors” (Pfizer Inc., priority 2009, dated 2013).

In one assay the target is CK1δ (Homo sapiens, UniProt P48730). The assay can be described thus: CK1δ kinase assay (Kinase-Glo luminescence). Format: biochemical. The note with it: ATP 10 μM, CK1δ enzyme 2 nM, peptide substrate 42 μM, 25° C., 85 minutes; values marked * are geometric mean of 5-16 determinations; read-out: CKIδ IC50 (nM), geometric mean of 2-4 determinations. The protocol: The CK1δ kinase assay was performed in a standard buffer containing ATP at 10 μM, CK1δ enzyme at 2 nM, and the peptide substrate PLSRTLpSVASLPGL at 42 μM. The reaction was incubated at 25° C. for 85 minutes. Enzyme inhibition was performed in the presence of either 1 μL of CK1δ inhibitor, or 4% DMSO. Detection of luminescent output on a PerkinElmer EnVision plate reader (PerkinElmer, Waltham, Mass.) was performed as described for the Kinase-Glo Assay (Promega).
Chain of CK1δ (P48730 whole entry): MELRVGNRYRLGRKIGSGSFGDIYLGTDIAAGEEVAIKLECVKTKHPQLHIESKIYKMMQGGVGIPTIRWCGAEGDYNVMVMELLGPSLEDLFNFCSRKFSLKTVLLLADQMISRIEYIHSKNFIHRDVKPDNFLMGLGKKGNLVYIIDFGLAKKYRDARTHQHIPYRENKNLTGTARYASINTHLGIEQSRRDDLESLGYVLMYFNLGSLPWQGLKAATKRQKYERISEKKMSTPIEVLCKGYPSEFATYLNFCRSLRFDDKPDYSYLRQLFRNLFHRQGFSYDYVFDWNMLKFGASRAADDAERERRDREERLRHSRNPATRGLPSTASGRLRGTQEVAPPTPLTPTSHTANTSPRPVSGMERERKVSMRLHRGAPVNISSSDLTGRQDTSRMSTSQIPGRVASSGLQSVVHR

A further assay has as its target CK1ε wild type enzyme (Homo sapiens, UniProt P49674). Nature of the assay: CK1ε kinase assay (Kinase-Glo luminescence). Type of assay: biochemical. The note with it: ATP 10 μM, CK1ε wild type enzyme 2.5 nM, peptide substrate 42 μM, 25° C., 70 minutes; values marked * are geometric mean of 5-16 determinations; read-out: CKIε IC50 (nM), geometric mean of 2-4 determinations. The protocol: The CK1ε kinase assay was performed in a standard buffer containing ATP at 10 μM, CK1ε wild type enzyme at 2.5 nM, and 42 μM concentration of the peptide substrate PLSRTLpSVASLPGL (Flotow et al., 1990). The reaction was incubated at 25° C. for 70 minutes. Enzyme inhibition was measured in the presence of 1 μL of the CK1ε inhibitor, or 4% DMSO. Detection was carried out as described for the Kinase-Glo Assay (Promega). Luminescent output was measured on the PerkinElmer EnVision plate reader (PerkinElmer, Waltham, Mass.).
A general note: Kinase-Glo measures the ATP left after a reaction by luminescence.

Where a name gives a salt, the structure may show the parent alone.

Chain of CK1ε wild type enzyme (P49674 whole entry): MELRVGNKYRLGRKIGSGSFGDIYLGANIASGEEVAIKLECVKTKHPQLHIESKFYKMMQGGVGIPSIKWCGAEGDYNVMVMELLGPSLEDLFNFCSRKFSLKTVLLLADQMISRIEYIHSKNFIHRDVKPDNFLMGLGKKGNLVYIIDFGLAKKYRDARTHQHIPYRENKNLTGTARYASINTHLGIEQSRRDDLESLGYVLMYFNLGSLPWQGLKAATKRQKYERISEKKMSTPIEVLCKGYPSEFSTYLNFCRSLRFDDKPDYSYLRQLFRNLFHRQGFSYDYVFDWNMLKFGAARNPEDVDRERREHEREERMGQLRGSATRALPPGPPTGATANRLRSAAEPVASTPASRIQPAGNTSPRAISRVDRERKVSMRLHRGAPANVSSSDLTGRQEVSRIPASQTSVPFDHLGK

For `Nc1nccc(-c2c(-c3ccc(F)cc3)ncn2C2CCN(Cc3ccncc3)C2)n1` (centres unmarked) [Example 34, 4-{4-(4-fluorophenyl)-1-[1-(pyridin-4-ylmethyl)pyrrolidin-3-yl]-1H-imidazol-5-yl}pyrimidin-2-amine], the values for the IC50 at CK1δ and on CK1ε wild type enzyme were 76.6 nM and 211 nM, respectively.

As for `Nc1nccc(-c2c(-c3ccc(F)cc3)ncn2C2CCN(Cc3ccc4nccnc4c3)C2)n1` (centres unmarked) [Example 35, 4-{4-(4-fluorophenyl)-1-[1-(quinoxalin-6-ylmethyl)pyrrolidin-3-yl]-1H-imidazol-5-yl}pyrimidin-2-amine], the IC50 was 67.8 nM on CK1δ and 170 nM on CK1ε wild type enzyme.

For `Fc1ccc(-c2ncn(C3CCN(Cc4ccon4)CC3)c2-c2ccncn2)cc1` [Example 6, 4-{4-(4-Fluorophenyl)-1-[1-(isoxazol-3-ylmethyl)piperidin-4-yl]-1H-imidazol-5-yl}pyrimidine, hydrochloride salt], the values for the IC50 at CK1δ and at CK1ε wild type enzyme were 24 nM and 126 nM, respectively.

Regarding `CNc1nccc(-c2c(-c3ccc(F)cc3)ncn2C2CCN(C(C)c3ccon3)CC2)n1` (centres unmarked) [Example 2, 4-{4-(4-Fluorophenyl)-1-[1-(1-isoxazol-3-ylethyl)piperidin-4-yl]-1H-imidazol-5-yl}-N-methylpyrimidin-2-amine], the IC50 came to 16.7 nM on CK1δ and 67.4 nM on CK1ε wild type enzyme.

With `Cc1ncc(CN2CCC(n3cnc(-c4ccc(F)cc4)c3-c3ccnc(N)n3)CC2)cn1` [Example 27, 4-[4-(4-fluorophenyl)-1-{1-[(2-methylpyrimidin-5-yl)methyl]piperidin-4-yl}-1H-imidazol-5-yl]pyrimidin-2-amine, trifluoroacetate salt], the IC50 was determined as 17.6 nM at CK1δ and 83.2 nM at CK1ε wild type enzyme.

As for `Nc1nccc(-c2c(-c3ccc(F)cc3)ncn2C2CCN(Cc3cncc4ccccc34)C2)n1` (centres unmarked) [Example 36, 4-{4-(4-fluorophenyl)-1-[1-(isoquinolin-4-ylmethyl)pyrrolidin-3-yl]-1H-imidazol-5-yl}pyrimidin-2-amine], the IC50 on CK1δ was found to be 56.3 nM; at CK1ε wild type enzyme it was 140 nM.

With `Cc1nc(-c2ccc(F)cc2)c(-c2ccncn2)n1C1CCN(Cc2ccon2)CC1` [Example 14, 4-{4-(4-Fluorophenyl)-1-[1-(isoxazol-3-ylmethyl)piperidin-4-yl]-2-methyl-1H-imidazol-5-yl}pyrimidine], the half-maximal inhibitory concentration (IC50) was 140 nM at CK1δ and 829 nM at CK1ε wild type enzyme.

In the case of `C[C@@H](c1ccon1)N1CCC(n2cnc(-c3ccc(F)cc3)c2-c2ccncn2)CC1` (single isomer, unassigned) [Example 10], the half-inhibitory concentration (IC50) on CK1δ was determined as 64.6 nM; on CK1ε wild type enzyme, 277 nM.

In the case of `Cc1cnc(CN2CCC(n3cnc(-c4ccc(F)cc4)c3-c3ccnc(N)n3)C2)c(F)c1` (centres unmarked) [Example 31, 4-[1-{1-[(3-fluoro-5-methylpyridin-2-yl)methyl]pyrrolidin-3-yl}-4-(4-fluorophenyl)-1H-imidazol-5-yl]pyrimidin-2-amine], the IC50 was 47.6 nM on CK1δ and 165 nM on CK1ε wild type enzyme.

Regarding `Nc1nccc(-c2c(-c3ccc(F)cc3)ncn2C2CCN(Cc3ccnc(C4CC4)n3)CC2)n1` [Example 28, 4-[1-{1-[(2-cyclopropylpyrimidin-4-yl)methyl]piperidin-4-yl}-4-(4-fluorophenyl)-1H-imidazol-5-yl]pyrimidin-2-amine, trifluoroacetate salt], the IC50 was 54.9 nM on CK1δ and 351 nM on CK1ε wild type enzyme.

Consider `Fc1ccc(-c2ncn(C3CCN(Cc4ccon4)C3)c2-c2ccncn2)cc1` (centres unmarked) [Example 8, 4-{4-(4-Fluorophenyl)-1-[1-(isoxazol-3-ylmethyl)pyrrolidin-3-yl]-1H-imidazol-5-yl}pyrimidine], for which the IC50 on CK1δ is 211 nM; at CK1ε wild type enzyme, 617 nM.

For the compound `Cc1cc(CN2CCC(n3cnc(-c4ccc(F)cc4)c3-c3ccncn3)CC2)no1` [Example 29, 4-[4-(4-fluorophenyl)-1-{1-[(5-methylisoxazol-3-yl)methyl]piperidin-4-yl}-1H-imidazol-5-yl]pyrimidine], the half-maximal inhibitory concentration (IC50) on CK1δ was 38.8 nM; on CK1ε wild type enzyme, 268 nM.

As for `Nc1nccc(-c2c(-c3ccc(F)cc3)ncn2C2CCN(Cc3ccnc4cccnc34)C2)n1` (centres unmarked) [Example 38, 4-{4-{4-fluorophenyl)-1-[1-(1,5-naphthyridin-4-ylmethyl)pyrrolidin-3-yl]-1H-imidazol-5-yl}pyrimidin-2-amine], the values for the IC50 on CK1δ and at CK1ε wild type enzyme were 55.8 nM and 158 nM, respectively.

As for `Cc1cc(CN2CCC(n3cnc(-c4ccc(F)cc4)c3-c3ccnc(N)n3)C2)no1` (centres unmarked) [Example 33, 4-[4-(4-fluorophenyl)-1-{1-[(5-methylisoxazol-3-yl)methyl]pyrrolidin-3-yl}-1H-imidazol-5-yl]pyrimidin-2-amine], the IC50 at CK1δ was 55.1 nM; on CK1ε wild type enzyme, 140 nM.

As for `COc1ccc(CN2CCC(n3cnc(-c4ccc(F)cc4)c3-c3ccnc(N)n3)CC2)cn1` [Example 22, 4-[4-(4-fluorophenyl)-1-{1-[(6-methoxypyridin-3-yl)methyl]piperidin-4-yl}-1H-imidazol-5-yl]pyrimidin-2-amine, trifluoroacetate salt], the IC50 is 83.6 nM at CK1δ and 482 nM at CK1ε wild type enzyme.

On to `CCc1csc(CN2CCC(n3cnc(-c4ccc(F)cc4)c3-c3ccnc(N)n3)CC2)n1` [Example 24, 4-[1-{1-[(4-ethyl-1,3-thiazol-2-yl)methyl]piperidin-4-yl}-4-(4-fluorophenyl)-1H-imidazol-5-yl]pyrimidin-2-amine, trifluoroacetate salt], for which the figures for the IC50 at CK1δ and on CK1ε wild type enzyme were 83.7 nM and 382 nM, respectively.

Usually IC50 stands for the concentration that inhibits the measured activity by half.
